Values joined by “and” are separate entries in the source; they are usually repeats but may differ in a detail not shown here. Equal entries are not always repeated.
Key:
[1] = biological target: T1, angiotensin II receptor, site 2 (AT-2 receptor) (Rattus norvegicus, UniProt P35351); assay: Receptor assay using rat adrenal gland preparation (125I-Angiotensin II binding), site 2
T1 construct: Adrenal membranes for the receptor assay were readied first by placing cleaned, whole adrenal glands in microcentrifuge tubes; from tissue; host or cells: rat adrenal glands (whole), membranes
T1 sequence (P35351 1-363): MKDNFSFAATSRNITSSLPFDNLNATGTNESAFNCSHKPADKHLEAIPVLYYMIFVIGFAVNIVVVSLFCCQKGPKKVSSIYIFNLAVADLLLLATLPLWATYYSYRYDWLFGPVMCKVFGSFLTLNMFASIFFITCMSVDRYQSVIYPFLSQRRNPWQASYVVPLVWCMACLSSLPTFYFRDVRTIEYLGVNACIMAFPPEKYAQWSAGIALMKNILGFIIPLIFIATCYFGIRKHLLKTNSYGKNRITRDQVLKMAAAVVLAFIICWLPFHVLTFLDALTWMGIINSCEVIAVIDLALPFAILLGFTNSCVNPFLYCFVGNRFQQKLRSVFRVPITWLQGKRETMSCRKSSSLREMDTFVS
Description: Angiotensin II (AII) is a powerful arterial vasoconstrictor, and it exerts its action by interacting with specific receptors present on cell membranes. The compounds of the present invention are competitive antagonists of AII at receptor sites. The usefulness of compounds as AII antagonists may be determined from the results of certain receptor binding assays. The initial assay is that using rat adrenal glands and the results of this assay are described herein.
Receptor assay using rat adrenal gland preparation
Adrenal membranes for the receptor assay were readied first by placing cleaned, whole adrenal glands in microcentrifuge tubes (20 glands per tube), and freezing and storing under liquid nitrogen. As needed, a microcentrifuge tube of adrenal glands was homogenized in 20 ml 50 mM Tris-HCl pH 7.7 and centrifuged at 20,000 rpm for 15 minutes at 4° C. […]
For the assay, the adrenal membrane preparation in one vial was resuspended in 30 ml of 100 mM Tris-HCl pH 7.4 with 5 mM MgCl2, 0.2% bovine serum albumin and 0.2 mg/ml bacitracin. […] The vials are counted with a gamma counter for one minute and percent inhibition determined from counts/min (CPM) as follows: [formula] The IC50 is determined by plotting percent inhibition v. concentration of compound tested.

[2] = biological target: T2, angiotensin II receptor, site 1 (Oryctolagus cuniculus, UniProt P34976); assay: Receptor binding assay using rabbit aortae membrane preparation (125I-Sar1 Ile8-angiotensin II), site 1; settings: rabbit aortae membranes, 37° C., 90 minutes
T2 construct: tissue Pel-Freeze Biologicals; host or cells: rabbit aorta, membranes
T2 sequence (P34976 1-359): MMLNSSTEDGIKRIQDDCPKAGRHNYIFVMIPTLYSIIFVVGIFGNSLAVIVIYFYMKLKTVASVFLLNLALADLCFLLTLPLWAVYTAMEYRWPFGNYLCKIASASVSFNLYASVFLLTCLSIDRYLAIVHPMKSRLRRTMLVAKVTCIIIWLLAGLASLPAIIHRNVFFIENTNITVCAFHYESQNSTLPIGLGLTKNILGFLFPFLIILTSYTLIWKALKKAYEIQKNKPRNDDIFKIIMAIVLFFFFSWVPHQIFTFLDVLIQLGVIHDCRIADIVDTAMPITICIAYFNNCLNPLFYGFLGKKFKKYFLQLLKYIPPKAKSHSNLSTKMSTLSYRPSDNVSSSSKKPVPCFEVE
Description: On positive results with rat adrenal gland assay, assays using rabbit aorta may be employed.
Receptor binding assay using rabbit aortae membrane preparation
Three frozen rabbit aortae (obtained from Pel-Freeze Biologicals) were suspended in 5 mM Tris-0.25M Sucrose, pH 7.4 buffer (50 mL) homogenized, and then centifuged. The mixture was filtered through a cheesecloth and the supernatant was centrifuged for 30 minutes at 20,000 rpm at 4° C. The pellet thus obtained was resuspended in 30 mL of 50 mM Tris-5 mM MgCl2 buffer containing 0.2% Bovine Serum Albumin and 0.2 mg/mL Bacitracin and the suspension was used for 100 assay tubes. Samples tested for screening were done in duplicate. To the membrane preparation (0.25 mL) there was added ^125 I-Sar^1 Ile^8 -angiotensin II [obtained from New England Nuclear] ([…]; 20,000 cpm) with or without the test sample and the mixture was incubated at 37° C. for 90 minutes. The mixture was then diluted with ice-cold 50 mM Tris-0.9% NaCl, pH 7.4 (4 mL) and filtered through a glass fiber filter (GF/B Whatman 2.4" diameter). The filter was soaked in scintillation cocktail (10 mL) and counted for radioactivity using Packard 2660 Tricarb liquid scintillation counter. […]

CCCCCC1=C(C=O)C2OC(C)(C)C(O)CC23OC3C1=O (stereo not drawn) [Compound A]
IC50 ([1]; rat adrenal membranes, 37° C., 90 minutes, site 2): 1620 to 3240 nM and 1000 to 2000 nM
antagonist activity at AT-2 receptor sites ([1]; statement in words): antagonist activity at AT-2 receptor sites
IC50 [2]: 25900 nM
